# Laboratory results: PMC3514216, “SRC Homology 2 Domain Binding Sites in Insulin, IGF-1 and FGF receptor mediated signaling networks reveal an extensive potential interactome” (Cell Communication and Signaling : CCS, 2012)
# Substitutions are numbered along the chain they refer to.
# How the values were obtained:
# Shc1 SH2 domain [1] = target: T1, Shc1 SH2 domain (Homo sapiens, UniProt P29353); experiment: SPOT peptide array; assay type: binding; conditions: GST-SH2 0.25 μM, membrane-bound peptide, 1 mM DTT, LiCor read-out
# T1 sequence (P29353 488-579 limits assumed): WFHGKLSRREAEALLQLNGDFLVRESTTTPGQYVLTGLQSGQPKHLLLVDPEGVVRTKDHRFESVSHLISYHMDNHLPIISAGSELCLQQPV
# In short: (§1)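 GST-tagged SH2 domain probed onto SPOT-synthesized 11-mer pTyr peptides (pTyr at pos. 5); anti-GST + NIR-labelled secondary detection. Binder = spot intensity >3× array mean; non-binder <1× mean; 1–3× indeterminate. GST-only 'sticky' peptides excluded.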
# Grb2 SH2 domain = Grb2 SH2 domain (Homo sapiens, UniProt P62993); parameters: method as in earlier work; conditions: SH2 protein microarray; N.B. = non binding; read-out: Protein Microarray (Macbeath) – KD; cited from earlier work
# Grb2 SH2 domain, sequence (P62993 60-152 limits assumed): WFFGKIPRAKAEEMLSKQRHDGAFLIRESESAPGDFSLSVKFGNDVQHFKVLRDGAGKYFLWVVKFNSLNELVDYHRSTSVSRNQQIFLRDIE
# Abl2 SH2 domain [2] = target: T2, Abl2 SH2 domain (Homo sapiens, UniProt P42684); parameters: method as in earlier work; conditions: SH2 protein microarray; N.B. = non binding; read-out: Protein Microarray (Macbeath) – KD; cited from earlier work
# T2 sequence (P42684 173-263 limits assumed): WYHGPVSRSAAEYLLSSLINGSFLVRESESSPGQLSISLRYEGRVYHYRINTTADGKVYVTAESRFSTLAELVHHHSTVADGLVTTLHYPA
# Sh2d1b SH2 domain = Sh2d1b SH2 domain (Homo sapiens, UniProt O14796); experiment: SPOT peptide array; assay type: binding; conditions: GST-SH2 0.25 μM, membrane-bound peptide, 1 mM DTT, LiCor read-out
# Sh2d1b SH2 domain, sequence (O14796 5-101 limits assumed): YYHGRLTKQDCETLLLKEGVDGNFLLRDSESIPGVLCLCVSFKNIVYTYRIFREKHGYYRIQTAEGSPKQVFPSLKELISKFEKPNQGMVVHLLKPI
# CrkL SH2 domain [3] = target: T3, CrkL SH2 domain (Homo sapiens, UniProt P46109); experiment: Fluorescence polarization solution binding; conditions: Rhodamine B-labeled peptide, GST-SH2, Beacon 2000, read-out: Affinity (KD)
# T3 sequence (P46109 14-102 limits assumed): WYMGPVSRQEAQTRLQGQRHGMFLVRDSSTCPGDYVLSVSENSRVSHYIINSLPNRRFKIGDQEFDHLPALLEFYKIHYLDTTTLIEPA
# Text: To verify the binding results obtained from addressable peptide arrays we employed an orthogonal method of determining SH2 interactions with peptide ligands. We measured the dissociation constants of 60 binary SH2-peptide pairs in solution by fluorescence polarization (Table 2, Additional file 2: Figures S3A-C).
# Peptides were synthesized using FMOC-chemistry onto pre-loaded tenta-gel resins. Peptides were then labeled with Rhodamine B (Abbey Color) and then cleaved using trifluoroacetic acid. Peptides were lyophilized and then purified using a LC/MS (Agilent 2100). Dissociation constants were measured using the Beacon 2000 (Invitrogen) as previously described.
# Binding Affinities determined by Fluorescence Polarization. Rhodamine B-labeled peptides were mixed with varying concentrations of GST-tagged SH2 domains. Fluorescence polarization measurements were read on a Beacon 2000 (Invitrogen). The curves were fit to a Michaelis-Menten equation to calculate the dissociation constant, KD. […] (C) Affinity measurements that fell below the 2X mean intensity and were considered array negative on the SPOT array.
# Abl1 SH2 domain = target: T4, Abl1 SH2 domain (Homo sapiens, UniProt P00519); experiment: SPOT peptide array; assay type: binding; conditions: GST-SH2 0.25 μM, membrane-bound peptide, 1 mM DTT, LiCor read-out
# T4 sequence (P00519 127-217 limits assumed): T2 sequence (P42684 173-263 limits assumed) with S9N, L18G, L35R, T53A, A54S, V58L, T61S, A62S, S67N, V84I
# In short: as §1
# Nck1 SH2 domain = Nck1 SH2 domain (Homo sapiens, UniProt P16333); experiment: SPOT peptide array; assay type: binding; conditions: GST-SH2 0.25 μM, membrane-bound peptide, 1 mM DTT, LiCor read-out
# In short: as §1
# panel of 50 SH2 domains = experiment: SPOT peptide array probed with each of 50 GST-SH2 domains; assay type: binding; conditions: SH2 domains with intensity >3X array mean; GST-SH2 0.25 μM, 1 mM DTT
# In short: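 Membrane SPOT arrays of 192 phosphotyrosine 11-mer peptides (four residues N-terminal, six C-terminal to pTyr) probed with GST-SH2 fusions, detected by anti-GST plus near-infrared secondary antibody. Spots >3-fold array mean scored positive, below mean negative, 1–3× indeterminate; peptides binding GST alone above mean in two of three trials flagged as sticky.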
# PI3K1_N SH2 domain [4] = target: T5, PI3K1_N SH2 domain (Homo sapiens, UniProt P27986); experiment: SPOT peptide array; assay type: binding; conditions: GST-SH2 0.25 μM, membrane-bound peptide, 1 mM DTT, LiCor read-out
# T5 sequence (P27986 333-428 limits assumed): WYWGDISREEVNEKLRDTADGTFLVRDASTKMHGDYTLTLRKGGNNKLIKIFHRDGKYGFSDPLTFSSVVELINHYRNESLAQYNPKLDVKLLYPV
# In short: as §1
# Plcγ-C SH2 domain [5] = experiment: SPOT peptide array; assay type: binding; conditions: GST-SH2 0.25 μM, membrane-bound peptide, 1 mM DTT, LiCor read-out
# In short: as §1
# Plcγ-N SH2 domain [6] = experiment: SPOT peptide array; assay type: binding; conditions: GST-SH2 0.25 μM, membrane-bound peptide, 1 mM DTT, LiCor read-out
# In short: as §1
# Vav1 SH2 domain = Vav1 SH2 domain (Homo sapiens, UniProt P15498); experiment: SPOT peptide array; assay type: binding; conditions: GST-SH2 0.25 μM, membrane-bound peptide, 1 mM DTT, LiCor read-out
# Vav1 SH2 domain, sequence (P15498 671-765 limits assumed): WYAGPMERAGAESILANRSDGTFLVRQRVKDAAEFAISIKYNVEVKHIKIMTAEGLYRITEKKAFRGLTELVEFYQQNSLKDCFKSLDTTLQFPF
# In short: as §1
# Plcγ-N SH2 domain [7] = target: Plcγ-N SH2 domain; parameters: method as in PMID 9422724; conditions: tandem SH2 domains of PLCG1 against tandem phospho-peptide of PDGFRβ Y1009/Y1021; read-out: Affinity (KD); cited from earlier work
# Plcγ-C SH2 domain [8] = target: Plcγ-C SH2 domain; parameters: method as in 2 sources, one per row (each row's own in cited_ref): ref 95-97 = [95]; PMID 9422724; doi:10.1074/jbc.273.2.729; Ottinger EA Botfield MC Shoelson SE Tandem SH2 domains confer high specificity in tyrosine kinase signaling J Biol Chem 1998 273 729 735 9422724 10.1074/jbc.273.2.729 || [96]; PMID 8181064; doi:10.1016/0092-8674(94)90160-0; Pascal SM Singer AU Gish G Yamazaki T Shoelson SE Pawson T Kay LE Forman-Kay JD Nuclear magnetic resonance structure of an SH2 domain of phospholipase C-gamma 1 complexed with a high affinity binding || [97]; PMID 15641795; doi:10.1021/bi048641k; Finerty PJ Jr Mittermaier AK Muhandiram R Kay LE Forman-Kay JD NMR dynamics-derived insights into the binding properties of a peptide interacting with an SH2 domain Biochemistry 2005 44 694 703 156417 ||| ref [98] = [98]; PMID 11526507; doi:10.1038/sj.onc.1204654; Malabarba MG Milia E Faretta M Zamponi R Pelicci PG Di Fiore PP A repertoire library that allows the selection of synthetic SH2s with altered binding specificities Oncogene 2001 20 5186 5194 11526507; conditions: tandem SH2 domains of PLCG1 against tandem phospho-peptide of PDGFRβ Y1009/Y1021; read-out: Affinity (KD); cited from earlier work
# PI3K1_N SH2 domain [9] = target: T5, PI3K1_N SH2 domain; parameters: method as in PMID 8384875; conditions: cited from earlier work
# Shc1 SH2 domain [10] = target: T1, Shc1 SH2 domain; parameters: method as in PMID 7544002; conditions: read-out: Affinity (KD); cited from earlier work
# Abl2 SH2 domain [11] = target: T2, Abl2 SH2 domain; experiment: SPOT peptide array; assay type: binding; conditions: spot intensity as factor of array mean; GST-SH2 0.25 μM
# In short: as §1
# Crk SH2 domain = Crk SH2 domain (Homo sapiens, UniProt P46108); experiment: SPOT peptide array; assay type: binding; conditions: spot intensity as factor of array mean; GST-SH2 0.25 μM
# Crk SH2 domain, sequence (P46108 13-118 limits assumed): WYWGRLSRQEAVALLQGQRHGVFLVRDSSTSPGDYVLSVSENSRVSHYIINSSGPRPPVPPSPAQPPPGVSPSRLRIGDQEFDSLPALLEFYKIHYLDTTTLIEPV
# In short: as §1
# CrkL SH2 domain [12] = target: T3, CrkL SH2 domain; experiment: SPOT peptide array; assay type: binding; conditions: spot intensity as factor of array mean; GST-SH2 0.25 μM
# In short: as §1
# Src SH2 domain [13] = target: T6, Src SH2 domain (Homo sapiens, UniProt P12931); experiment: SPOT peptide array; assay type: binding; conditions: GST-SH2 0.25 μM, membrane-bound peptide, 1 mM DTT, LiCor read-out
# In short: as §1
# Lck SH2 domain [14] = experiment: SPOT peptide array; assay type: binding; conditions: GST-SH2 0.25 μM, membrane-bound peptide, 1 mM DTT, LiCor read-out
# Src SH2 domain [15] = target: T6, Src SH2 domain; parameters: method as in 2 sources, ref [19] = [19]; PMID 7680959; doi:10.1016/0092-8674(93)90404-e; Songyang Z Shoelson SE Chaudhuri M Gish G Pawson T Haser WG King F Roberts T Ratnofsky S Lechleider RJ SH2 domains recognize specific phosphopeptide sequences Cell 1993 72 767 778 7680959 10.1016/0092 ||| ref [119, 121] = [119]; PMID 9032297; doi:10.1128/mcb.17.3.1702; Schlaepfer DD Broome MA Hunter T Fibronectin-stimulated signaling from a focal adhesion kinase-c-Src complex: involvement of the Grb2, p130cas, and Nck adaptor proteins Mol Cell Biol 1997 17 1702 1713 || [121]; PMID 16245368; doi:10.1002/jmr.755; Nasertorabi F Tars K Becherer K Kodandapani R Liljas L Vuori K Ely KR Molecular basis for regulation of Src by the docking protein p130Cas J Mol Recognit 2006 19 30 38 16245368 10.1002/jmr.755; conditions: read-out: Affinity (KD); cited from earlier work
# Lck SH2 domain [16] = target: Lck SH2 domain; parameters: method as in PMID 11278862; conditions: read-out: Affinity (KD); cited from earlier work
# [17] = system: Ptpn11 SH2 domain (N or C not specified); experiment: SPOT peptide array; assay type: binding; conditions: GST-SH2 0.25 μM, membrane-bound peptide, 1 mM DTT, LiCor read-out
# In short: as §1
# Ptpn11_C SH2 domain = experiment: SPOT peptide array; assay type: binding; conditions: spot intensity as factor of array mean; GST-SH2 0.25 μM
# In short: as §1
# Ptpn11_N SH2 domain = target: T7, Ptpn11_N SH2 domain (Homo sapiens, UniProt Q06124); experiment: SPOT peptide array; assay type: binding; conditions: spot intensity as factor of array mean; GST-SH2 0.25 μM
# T7 sequence (Q06124 6-102 limits assumed): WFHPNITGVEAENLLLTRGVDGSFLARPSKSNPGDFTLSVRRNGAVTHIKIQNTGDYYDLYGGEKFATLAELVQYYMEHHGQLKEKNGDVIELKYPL
# In short: as §1
molecule,measurement,setting,value
"HDGLpYQGLSTA [11-mer phosphotyrosine control peptide, CD150 (Y142)]",Array positive,Shc1 SH2 domain [1],No (Peptide spots with average intensity values between 1X-3X the array mean were defined as ‘indeterminate’. Those with intensities below 1X mean were defined as array negative)
EIFTLGGSPpYPGVPVEED (EIFTLGGSPYPGVPVEED),Kd,Grb2 SH2 domain,140 nM
same,Kd,Abl2 SH2 domain [2],400 nM
"SLTIpYAQVQKA [11-mer phosphotyrosine control peptide, SLAM (Y280)]",Array positive,Sh2d1b SH2 domain,Yes (Array-positive binding was ascribed to interactions with intensities greater than three times the array mean)
CC(C)C[C@H](NC(=O)[C@H](CCC(=O)O)NC(=O)[C@H](Cc1ccc(OP(=O)(O)O)cc1)NC(=O)[C@H](CCC(=O)O)NC(=O)[C@H](CO)NC(=O)[C@@H](NC(=O)CN)C(C)C)C(=O)N1CCC[C@H]1C(=O)N[C@@H](CCC(=O)O)C(=O)N[C@@H](CC(=O)O)C(=O)N1CCC[C@H]1C(=O)O [GVSEpYELPEDP],Kd,CrkL SH2 domain [3],> 50 µM
"EDPIpYDEPEGL [11-mer phosphotyrosine peptide, p62DOK1 (Y362)]",Array positive,Abl1 SH2 domain,Yes (Array-positive binding was ascribed to interactions with intensities greater than three times the array mean)
same,Array positive,Nck1 SH2 domain,Yes (Array-positive binding was ascribed to interactions with intensities greater than three times the array mean)
same,Other SH2 domains bound (additional array-positive SH2 domains),panel of 50 SH2 domains,"Blk, Hck, Lck, Lyn, Shc1, Src"
"ADNDpYIIPLPD [11-mer phosphotyrosine control peptide, PDGFRb (Y1021), reference compound]",Array positive,PI3K1_N SH2 domain [4],No (Peptide spots with average intensity values between 1X-3X the array mean were defined as ‘indeterminate’. Those with intensities below 1X mean were defined as array negative)
same,Array positive,Plcγ-C SH2 domain [5],Yes (Array-positive binding was ascribed to interactions with intensities greater than three times the array mean)
same,Array positive,Plcγ-N SH2 domain [6],Yes (Array-positive binding was ascribed to interactions with intensities greater than three times the array mean)
same,Array positive,Vav1 SH2 domain,Yes (Array-positive binding was ascribed to interactions with intensities greater than three times the array mean)
same,Other SH2 domains bound (additional array-positive SH2 domains),panel of 50 SH2 domains,Brk
same,Kd,Plcγ-N SH2 domain [7],0.65 to 2.2 nM
same,Kd,Plcγ-C SH2 domain [8],0.65 to 2.2 nM
same,Relative affinity (ID50),PI3K1_N SH2 domain [9],45 µM
"HDGLpYQGLSTA (HDGLYQGLSTA) [11-mer phosphotyrosine control peptide, CD150 (Y142)]",Kd,Shc1 SH2 domain [10],50 µM
SSKDLVSCApYQVARGMED,Peptide array intensity (X mean),Abl2 SH2 domain [11],<2x X Mean
same,Peptide array intensity (X mean),Crk SH2 domain,<2x X Mean
same,Peptide array intensity (X mean),CrkL SH2 domain [12],<2x X Mean
"AEPQpYEEIPIY [11-mer phosphotyrosine control peptide, Middle T-antigen (Y323), reference compound]",Array positive,Src SH2 domain [13],Yes (Array-positive binding was ascribed to interactions with intensities greater than three times the array mean)
same,Array positive,Lck SH2 domain [14],Yes (Array-positive binding was ascribed to interactions with intensities greater than three times the array mean)
same,Other SH2 domains bound (additional array-positive SH2 domains),panel of 50 SH2 domains,"Blk, Brk, Fer, Fgr, Hck, Lyn, Nck1, Shc1, Yes"
same,Kd,Src SH2 domain [15],550 to 800 nM
same,Kd,Lck SH2 domain [16],1300 ± 200 nM
"STVEpYSTVVHS [11-mer phosphotyrosine control peptide, gp130/IL-6 Receptor (Y759), reference compound]",Array positive,[17],No (Peptide spots with average intensity values between 1X-3X the array mean were defined as ‘indeterminate’. Those with intensities below 1X mean were defined as array negative)
same,Peptide array intensity (X mean),Ptpn11_C SH2 domain,2.8 X Mean
same,Peptide array intensity (X mean),Ptpn11_N SH2 domain,1.33 X Mean
same,Other SH2 domains bound (additional array-positive SH2 domains),panel of 50 SH2 domains,"PTPN11_N is 1.33X Mean, PTPN11_C is 2.8X Mean Brdg1, Brk, Sh2d1b"
